# Measurements reported in patent US12357645B2, “Drug combination for treatment of gastric cancer” (priority 2023, dated 2025).
# Columns and labels:
# [1] = tested on: patients with advanced gastric cancer (AGC); assay: Phase 1 study of minnelide prodrug alone or with paclitaxel in advanced gastric cancer (NCT 05566834): safety, DLT, MTD, adverse events
# [2] = tested on: pancreatic tumor cell lines; assay: Viability of pancreatic tumor cell lines in vitro (activated with alkaline phosphatase); type: cell-based; details: activated by concurrent incubation with alkaline phosphatase
# gastric cancer = details: alone or in combination, when properly dosed
# From the text: Gastric cancer is the most prevalent cancer in South Korea […]. […] Herein, we have evaluated efficacy of minnelide prodrug in combination with paclitaxel in a subcutaneous mouse model of gastric cancer and in a human clinical trial.
# MKN45, MKN28I-N-87 = assay: Subcutaneous gastric cancer models, daily intraperitoneal minnelide prodrug; type: in vivo; details: 0.2 mg/kg and 0.4 mg/kg
# [3] = tested on: patients with Advanced Gastrointestinal Tumors; assay: Phase 1 study of intravenous minnelide prodrug: safety; type: in vivo, human
# From the text: Intravenous Minnelide Prodrug. Phase 1, Multi-Center, Open-Label, Dose-Escalation, Safety, Pharmacokinetic, and Pharmacodynamic Study of minnelide prodrug given intravenously daily for 21 days followed by 7 days off schedule in patients with Advanced Gastrointestinal Tumors. A second dosing schedule of minnelide prodrug given intravenously QD for 5 days with 2 days off for three weeks followed by a 7-day rest period was also explored during this study.
structure (smiles),measurement,setting,value
"CC(C)[C@]12O[C@H]1[C@@H]1O[C@]13[C@]1(O[C@H]1C[C@H]1C4=C(CC[C@@]13C)C(=O)OC4)[C@@H]2OCOP(=O)([O-])[O-].[Na+].[Na+] [minnelide prodrug, disodium; [(1S,2S,4S,5S,7S,8R,9R,11S, 13S)-1-methyl-17-oxo-7-propan-2-yl-3,6,10,16-tetraoxaheptacyclo [11.7.0.0^2,4.0^2,9.0^5,7.0^9,11.0^14,18]icos-14 (18)-en-8-yl]oxymethyl phosphate]","TRAE Cancer pain, Any","[1]; Total Regimens A-C, n = 36",3 (8.3) n (%)
same,"TRAE Cancer pain, ≥Gr 3","[1]; Total Regimens A-C, n = 36",1 (2.8) n (%)
same,"TRAE Cancer progression, Any","[1]; Total Regimens A-C, n = 36",4 (11.1)/4 (11.1) n (%)
same,"TRAE Cancer progression, ≥Gr 3","[1]; Total Regimens A-C, n = 36",4 (11.1)/4 (11.1) n (%)
same,"TRAE Constipation, Any","[1]; Total Regimens A-C, n = 36",3 (8.3)/— n (%)
same,"TRAE Decreased vision, Any","[1]; Total Regimens A-C, n = 36",1 (2.8)/— n (%)
same,"TRAE Depression, Any","[1]; Total Regimens A-C, n = 36",1 (2.8)/— n (%)
same,"TRAE Dyspepsia, Any","[1]; Total Regimens A-C, n = 36",2 (5.6)/— n (%)
same,"TRAE Dysuria, Any","[1]; Total Regimens A-C, n = 36",1 (2.8)/— n (%)
same,"TRAE Edema, Any","[1]; Total Regimens A-C, n = 36",1 (2.8)/— n (%)
same,"TRAE Fatigue, Any","[1]; Total Regimens A-C, n = 36",7 (19.4)/— n (%)
same,"TRAE Gastric stenosis, Any","[1]; Total Regimens A-C, n = 36",1 (2.8)/1 (2.8) n (%)
same,"TRAE Gastric stenosis, ≥Gr 3","[1]; Total Regimens A-C, n = 36",1 (2.8)/1 (2.8) n (%)
same,"TRAE General weakness, Any","[1]; Total Regimens A-C, n = 36",2 (5.6)/— n (%)
same,"TRAE Headache, Any","[1]; Total Regimens A-C, n = 36",1 (2.8)/— n (%)
same,"TRAE Hypercalcemia, Any","[1]; Total Regimens A-C, n = 36",1 (2.8)/1 (2.8) n (%)
same,"TRAE Hypercalcemia, ≥Gr 3","[1]; Total Regimens A-C, n = 36",1 (2.8)/1 (2.8) n (%)
same,"TRAE Hypophosphatemi, Any","[1]; Total Regimens A-C, n = 36",1 (2.8)/1 (2.8) n (%)
same,"TRAE Hypophosphatemi, ≥Gr 3","[1]; Total Regimens A-C, n = 36",1 (2.8)/1 (2.8) n (%)
same,"TRAE Jaundice, Any","[1]; Total Regimens A-C, n = 36",1 (2.8)/1 (2.8) n (%)
same,"TRAE Jaundice, ≥Gr 3","[1]; Total Regimens A-C, n = 36",1 (2.8)/1 (2.8) n (%)
same,"TRAE Mucositis, Any","[1]; Total Regimens A-C, n = 36",1 (2.8)/— n (%)
same,"TRAE Nausea, Any","[1]; Total Regimens A-C, n = 36",12 (33.3) n (%)
same,"TRAE Nausea, ≥Gr 3","[1]; Total Regimens A-C, n = 36",2(5.6) n (%)
same,"TRAE Neutropenia, Any","[1]; Total Regimens A-C, n = 36",11 (30.6) n (%)
same,"TRAE Neutropenia, ≥Gr 3","[1]; Total Regimens A-C, n = 36",7 (19.4) n (%)
same,"TRAE Overall, Any","[1]; Total Regimens A-C, n = 36",34 (94.4) n (%)
same,"TRAE Overall, ≥Gr 3","[1]; Total Regimens A-C, n = 36",16 (44.4) n (%)
same,"TRAE Pruritus, Any","[1]; Total Regimens A-C, n = 36",1 (2.8)/— n (%)
same,"TRAE Rash, Any","[1]; Total Regimens A-C, n = 36",1 (2.8)/— n (%)
same,"TRAE Sore throat, Any","[1]; Total Regimens A-C, n = 36",1 (2.8)/— n (%)
same,"TRAE Tachycardia, Any","[1]; Total Regimens A-C, n = 36",2 (5.6)/— n (%)
same,"TRAE Tuberculosis, Any","[1]; Total Regimens A-C, n = 36",1 (2.8)/— n (%)
same,"TRAE Urinary tract infection, Any","[1]; Total Regimens A-C, n = 36",2 (5.6)/— n (%)
same,"TRAE Vomiting, Any","[1]; Total Regimens A-C, n = 36",5 (13.9) n (%)
same,"TRAE Vomiting, ≥Gr 3","[1]; Total Regimens A-C, n = 36",1 (2.8) n (%)
same,"TRAE Weight loss, Any","[1]; Total Regimens A-C, n = 36",1 (2.8)/— n (%)
same,TRAE neutropenia,"[1]; all regimens, 11/36",30.6%
same,TRAE nausea,"[1]; all regimens, 12/36",33.3%
same,TRAE abdominal pain,"[1]; all regimens, 16/36",44.4%
same,"TRAEs above Grade 3, share of patients","[1]; all regimens, 16 patients of 36",44.4%
same,TRAE anorexia,"[1]; all regimens, 18/36",50%
same,"Grade 5 AEs caused by gastric cancer progression, number","[1]; all regimens, 36 patients",four and Four
same,Grade 3 or higher AE with minnelide prodrug: abdominal pain,"[1]; all regimens, n = 36",11.1%
same,Grade 3 or higher AE with minnelide prodrug: nausea,"[1]; all regimens, n = 36",5.6%
same,Grade 3 or higher AE with minnelide prodrug: neutropenia,"[1]; all regimens, n = 36",19.4%
same,"Grade 3 or higher AEs with minnelide prodrug, overall","[1]; all regimens, n = 36",27.8%
same,TRAE above Grade 3: abdominal pain,"[1]; all regimens, n = 36",11.1%
same,TRAE above Grade 3: neutropenia,"[1]; all regimens, n = 36",19.4%
same,drop in blood counts: resolution after withholding the drug,[1]; in vivo,4 to 8 days
same,Grade ≥3 abdominal pain,[1]; monotherapy group,18.2%
same,Grade ≥3 nausea,[1]; monotherapy group,18.2%
same,Grade ≥3 neutropenia,[1]; monotherapy group,9.1%
same,Grade ≥3 vomiting,[1]; monotherapy group,9.1%
same,maximum tolerated dose (MTD),"[1]; monotherapy, PO once daily for 21 days every 4 weeks",1.25 mg
same,drop in blood counts: onset after start of drug,[1]; usually seen,5 to 7 days
same,potency in decreasing viability,[2],as potent as triptolide
same,toxic effects,gastric cancer,no significant toxic effects
same,tumor weights and volumes,"MKN45, MKN28I-N-87",markedly decreased tumor weights and volumes
same,"Anemia and thrombocytopenia Grade 3 and 4 (drug related), share of patients",[3],22%
same,Serious Adverse Events related to the study drug,[3],six
same,"Serious Adverse Events, number",[3],28
same,TEAE cases considered DLTs,[3],two
same,"other possibly related side effects of any grade (nausea, vomiting, diarrhea, constipation, anorexia, stomatitis, cerebellar toxicity, embolism, dyspnea), share of patients",[3],≤ 3%
same,patients with Serious Adverse Events,[3],17
same,patients with at least 1 AE considered related to the study drug,[3],32
same,patients with neutropenic fever and neutropenic infection (drug related),[3],three
same,deaths in the study,"[3]; 42 patients dosed, after study drug ended, within 30-day follow-up, not related to study drug",6
same,patients who discontinued study drug due to TEAEs,[3]; all Grade 3,3
same,resolution of grade 3 and 4 neutropenia after not receiving treatment,[3]; all dose levels,within a couple of days
